In ChEMBL document CHEMBL1201862, “PubChem BioAssay data set” (2004):
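Compound exposure: 48 hours, 5 concentrations, 96-well plates. At the GI50, growth is halved.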 Active and inactive are the calls of the source. Cut-off read from the data, not from the text of the source: active = GI50 up to about 1.1 µM and inactive = higher.

Key:
Experiment in all cases: DTP human tumour cell line panel, 48 h
A498 = system: A498
A549 = system: A549
ACHN = system: ACHN
CAKI-1 = system: CAKI-1
CCRF-CEM = system: CCRF-CEM
COLO 205 = system: COLO 205
DU-145 = system: DU-145
EKVX = system: EKVX
HCC 2998 = system: HCC 2998
HCT-116 = system: HCT-116
HCT-15 = system: HCT-15
HL-60 = system: HL-60
HOP-62 = system: HOP-62
HT-29 = system: HT-29
Hs-578T = system: Hs-578T
IGROV-1 = system: IGROV-1
K562 = system: K562
KM12 = system: KM12
LOX IMVI = system: LOX IMVI
M14 = system: M14
MCF7 = system: MCF7
MDA-MB-231 = system: MDA-MB-231
MDA-MB-435 = system: MDA-MB-435
MDA-N = system: MDA-N
MOLT-4 = system: MOLT-4
Malme-3M = system: Malme-3M
NCI-H226 = system: NCI-H226
NCI-H23 = system: NCI-H23
NCI-H460 = system: NCI-H460
NCI-H522 = system: NCI-H522
NCI/ADR-RES = system: NCI/ADR-RES
OVCAR-3 = system: OVCAR-3
OVCAR-4 = system: OVCAR-4
OVCAR-5 = system: OVCAR-5
OVCAR-8 = system: OVCAR-8
PC-3 = system: PC-3
RPMI-8226 = system: RPMI-8226
RXF 393 = system: RXF 393
SF-268 = system: SF-268
SF-295 = system: SF-295
SF-539 = system: SF-539
SK-MEL-28 = system: SK-MEL-28
SK-MEL-2 = system: SK-MEL-2
SK-MEL-5 = system: SK-MEL-5
SK-OV-3 = system: SK-OV-3
SNB-19 = system: SNB-19
SNB-75 = system: SNB-75
SR = system: SR
SW-620 = system: SW-620
T47D = system: T47D
TK-10 = system: TK-10
U-251 = system: U-251
UACC-62 = system: UACC-62
UO-31 = system: UO-31
HOP-92 = system: HOP-92
SN12C = system: SN12C
786-0 = system: 786-0
UACC-257 = system: UACC-257

c1ccc2c(CCNC3=NCCO3)cccc2c1
GI50 (A498): > 10 µM (inactive)
GI50 (A549): > 10 µM (inactive)
GI50 (ACHN): > 10 µM (inactive)
GI50 (CAKI-1): > 10 µM (inactive)
GI50 (CCRF-CEM): > 10 µM (inactive)
GI50 (COLO 205): > 10 µM (inactive)
GI50 (DU-145): > 10 µM (inactive)
GI50 (EKVX): > 10 µM (inactive)
GI50 (HCC 2998): > 10 µM (inactive)
GI50 (HCT-116): > 10 µM (inactive)
GI50 (HCT-15): > 10 µM
GI50 (HL-60): > 10 µM (inactive)
GI50 (HOP-62): > 10 µM (inactive)
GI50 (HT-29): > 10 µM (inactive)
GI50 (Hs-578T): > 10 µM (inactive)
GI50 (IGROV-1): > 10 µM (inactive)
GI50 (K562): > 10 µM (inactive)
GI50 (KM12): > 10 µM (inactive)
GI50 (LOX IMVI): > 10 µM (inactive)
GI50 (M14): > 10 µM (inactive)
GI50 (MCF7): > 10 µM (inactive)
GI50 (MDA-MB-231): > 10 µM (inactive)
GI50 (MDA-MB-435): > 10 µM (inactive)
GI50 (MDA-N): > 10 µM (inactive)
GI50 (MOLT-4): > 10 µM (inactive)
GI50 (Malme-3M): > 10 µM (inactive)
GI50 (NCI-H226): > 10 µM (inactive)
GI50 (NCI-H23): > 10 µM (inactive)
GI50 (NCI-H460): > 10 µM (inactive)
GI50 (NCI-H522): > 10 µM (inactive)
GI50 (NCI/ADR-RES): > 10 µM (inactive)
GI50 (OVCAR-3): > 10 µM (inactive)
GI50 (OVCAR-4): > 10 µM (inactive)
GI50 (OVCAR-5): > 10 µM (inactive)
GI50 (OVCAR-8): > 10 µM (inactive)
GI50 (PC-3): > 10 µM (inactive)
GI50 (RPMI-8226): > 10 µM (inactive)
GI50 (RXF 393): > 10 µM (inactive)
GI50 (SF-268): > 10 µM (inactive)
GI50 (SF-295): > 10 µM (inactive)
GI50 (SF-539): > 10 µM (inactive)
GI50 (SK-MEL-28): > 10 µM (inactive)
GI50 (SK-MEL-2): > 10 µM (inactive)
GI50 (SK-MEL-5): > 10 µM (inactive)
GI50 (SK-OV-3): > 10 µM (inactive)
GI50 (SNB-19): > 10 µM (inactive)
GI50 (SNB-75): > 10 µM (inactive)
GI50 (SR): > 10 µM (inactive)
GI50 (SW-620): > 10 µM (inactive)
GI50 (T47D): > 10 µM (inactive)
GI50 (TK-10): > 10 µM (inactive)
GI50 (U-251): > 10 µM (inactive)
GI50 (UACC-62): > 10 µM (inactive)
GI50 (UO-31): 4.26 µM (inactive)

CN(C)CCCNC(=O)N/N=C\c1cccc2ccccc12
GI50 (A498): > 10 µM (inactive)
GI50 (A549): > 10 µM (inactive)
GI50 (ACHN): > 10 µM (inactive)
GI50 (CCRF-CEM): > 10 µM (inactive)
GI50 (COLO 205): > 10 µM (inactive)
GI50 (DU-145): > 10 µM (inactive)
GI50 (EKVX): > 10 µM (inactive)
GI50 (HCC 2998): > 10 µM (inactive)
GI50 (HCT-116): > 10 µM (inactive)
GI50 (HCT-15): > 10 µM
GI50 (HL-60): > 10 µM (inactive)
GI50 (HOP-62): > 10 µM (inactive)
GI50 (HOP-92): > 10 µM (inactive)
GI50 (HT-29): > 10 µM (inactive)
GI50 (Hs-578T): > 10 µM (inactive)
GI50 (IGROV-1): > 10 µM (inactive)
GI50 (K562): > 10 µM (inactive)
GI50 (KM12): > 10 µM (inactive)
GI50 (LOX IMVI): > 10 µM (inactive)
GI50 (M14): > 10 µM (inactive)
GI50 (MCF7): > 10 µM (inactive)
GI50 (MDA-MB-231): > 10 µM (inactive)
GI50 (MDA-N): > 10 µM (inactive)
GI50 (MOLT-4): > 10 µM (inactive)
GI50 (Malme-3M): > 10 µM (inactive)
GI50 (NCI-H460): > 10 µM (inactive)
GI50 (NCI-H522): > 10 µM (inactive)
GI50 (NCI/ADR-RES): > 10 µM (inactive)
GI50 (OVCAR-4): > 10 µM (inactive)
GI50 (OVCAR-5): > 10 µM (inactive)
GI50 (OVCAR-8): > 10 µM (inactive)
GI50 (PC-3): > 10 µM (inactive)
GI50 (RPMI-8226): > 10 µM (inactive)
GI50 (RXF 393): > 10 µM (inactive)
GI50 (SF-268): > 10 µM (inactive)
GI50 (SF-295): > 10 µM (inactive)
GI50 (SF-539): > 10 µM (inactive)
GI50 (SK-MEL-28): > 10 µM (inactive)
GI50 (SK-MEL-5): > 10 µM (inactive)
GI50 (SK-OV-3): > 10 µM (inactive)
GI50 (SN12C): > 10 µM (inactive)
GI50 (SNB-75): > 10 µM (inactive)
GI50 (SR): > 10 µM (inactive)
GI50 (SW-620): > 10 µM (inactive)
GI50 (T47D): > 10 µM (inactive)
GI50 (TK-10): > 10 µM (inactive)
GI50 (UACC-62): > 10 µM (inactive)
GI50 (UO-31): 4.45 µM (inactive)

CN1C(=O)C2(Cc3cn(C45CC67SSC(CO)(C(=O)N6C4Nc4ccccc45)N(C)C7=O)c4ccccc34)SSC1(CO)C(=O)N2C (stereo not drawn)
GI50 (786-0): < 0.01 µM (active)
GI50 (A498): 0.0291 µM (active)
GI50 (A549): 0.172 µM (active)
GI50 (ACHN): < 0.01 µM (active)
GI50 (CAKI-1): < 0.01 µM (active)
GI50 (CCRF-CEM): 1.52 µM (inactive)
GI50 (COLO 205): < 0.01 µM (active)
GI50 (DU-145): 0.0261 µM (active)
GI50 (EKVX): 0.0282 µM (active)
GI50 (HCC 2998): 0.0229 µM (active)
GI50 (HCT-116): 0.0113 µM (active)
GI50 (HCT-15): < 0.01 µM
GI50 (HL-60): 0.013 µM (active)
GI50 (HOP-62): 0.0634 µM (active)
GI50 (HOP-92): 0.053 µM (active)
GI50 (HT-29): < 0.01 µM (active)
GI50 (Hs-578T): 0.0282 µM (active)
GI50 (IGROV-1): 0.0165 µM (active)
GI50 (K562): < 0.01 µM (active)
GI50 (KM12): 0.139 µM (active)
GI50 (LOX IMVI): 0.0114 µM (active)
GI50 (M14): < 0.01 µM (active)
GI50 (MCF7): < 0.01 µM (active)
GI50 (MDA-MB-231): 0.0133 µM (active)
GI50 (MDA-MB-435): 0.0335 µM (active)
GI50 (MDA-N): 0.0198 µM (active)
GI50 (MOLT-4): 0.0405 µM (active)
GI50 (Malme-3M): < 0.01 µM (active)
GI50 (NCI-H23): < 0.01 µM (active)
GI50 (NCI-H460): 0.218 µM (active)
GI50 (NCI-H522): < 0.01 µM (active)
GI50 (NCI/ADR-RES): 0.0197 µM (active)
GI50 (OVCAR-3): 0.0163 µM (active)
GI50 (OVCAR-4): < 0.01 µM (active)
GI50 (OVCAR-5): 0.12 µM (active)
GI50 (OVCAR-8): 0.0206 µM (active)
GI50 (PC-3): 0.0478 µM (active)
GI50 (RPMI-8226): 0.0139 µM (active)
GI50 (SF-268): 0.0191 µM (active)
GI50 (SF-295): 0.309 µM (active)
GI50 (SF-539): 0.011 µM (active)
GI50 (SK-MEL-28): 0.084 µM (active)
GI50 (SK-MEL-2): 0.1 µM (active)
GI50 (SK-MEL-5): 0.1 µM (active)
GI50 (SK-OV-3): 0.262 µM (active)
GI50 (SN12C): 0.0147 µM (active)
GI50 (SNB-19): 0.271 µM (active)
GI50 (SNB-75): 0.0423 µM (active)
GI50 (SR): < 0.01 µM (active)
GI50 (SW-620): 0.0108 µM (active)
GI50 (T47D): < 0.01 µM (active)
GI50 (TK-10): 0.0243 µM (active)
GI50 (U-251): 0.0369 µM (active)
GI50 (UACC-257): 0.0188 µM (active)
GI50 (UACC-62): 0.0239 µM (active)
GI50 (UO-31): 0.0335 µM (active)
